Measured values published in paper PMC8822125, “RW-BP100-4D, a Promising Antimicrobial Candidate With Broad-Spectrum Bactericidal Activity” (Frontiers in Microbiology, 2022).
In brackets after ≈: the same amount, converted by molar mass. Several values for one entry are separate records, joined by “and”; a condition that tells them apart may be missing. Equal values may be shown once. Where a SMILES comes first, the peptide text is derived from it.

Columns and labels:
Fusarium oxysporum LD21 = test: MIC/MBC, broth microdilution (CLSI M38); assay type: cell-based
papain = papain (Carica papaya, UniProt P00784); conditions: 100 μg/mL peptide, papain 1 mg/mL, 37°C, 1 h; decrease of HPLC peak area (C8, UV 220 nm)
Escherichia coli 47EC = Escherichia coli 47EC (tet(X4)); mean of three repeated experiments
[1] = system: Pseudomonas fluorescens AC04; conditions: mean of three repeated experiments
Procedure: (§1) To compare the antibacterial activity of RW-BP100 and its serial derivatives, the MIC against S. aureus ATCC29213 and E. coli ATCC25922 were determined using broth microdilution method according to the guidelines of Clinical and Laboratory Standards Institute (CLSI) M100-S25 ([CLSI, 2015]). Briefly, peptides were dissolved in sterilized water and twofold diluted in Mueller-Hinton (MH) broth (Beijing Land Bridge Technology) at the concentration ranges of 0.098–100 μg/mL. Then the peptides were mixed with an equal volume (100 μL) of bacterial suspensions of 10^6 CFU/mL in a sterilized 96-well microtiter plate. […] To further evaluate the antimicrobial spectrum of RW-BP100-4D, MICs were determined against a more variety of Gram-positive and Gram-negative bacterial species, and the fungal strains (according to CLSI M38 guideline). […] MIC and MBC testing were performed with three independent repeats.

[2] = system: Pseudomonas aeruginosa 42; conditions: mean of three repeated experiments
Procedure: as §1

[3] = system: Enterococcus faecalis JH2-2; conditions: mean of three repeated experiments
Procedure: as §1

[4] = system: E. coli ATCC25922, S. aureus ATCC29213, and C. albicans ATCC10231; test: Stress stability, fold change of MIC against the three reference strains; assay type: cell-based; conditions: proteinase K 1 mg/mL, 37°C, 1 h
RAW264.7 cells = conditions: peptide 150 μg/mL, 24 h, WST-1, mean ± SD, three repeats
[5] = system: Escherichia coli ATCC25922
MAC-T cells = conditions: peptide 150 μg/mL, 24 h, WST-1, mean ± SD, three repeats
[6] = 100 μg/mL in PBS, 1 h
E. coli ATCC25922 = conditions: 1 h, mean of three
various microorganisms = test: MIC/MBC, summary statements over several strains; assay type: cell-based
[7] = system: Staphylococcus aureus ATCC29213; test: MIC/MBC, broth microdilution; assay type: cell-based
[8] = Table 1, broth microdilution CLSI M100-S25, MH broth, 37°C, 18 h, three independent repeats

papain, sequence (P00784 134-345): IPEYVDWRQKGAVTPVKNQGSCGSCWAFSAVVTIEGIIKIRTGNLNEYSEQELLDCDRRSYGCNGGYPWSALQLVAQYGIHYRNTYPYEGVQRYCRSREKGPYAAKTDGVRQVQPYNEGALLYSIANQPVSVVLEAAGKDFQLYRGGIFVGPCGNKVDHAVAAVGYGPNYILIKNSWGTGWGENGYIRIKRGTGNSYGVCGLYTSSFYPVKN

CC[C@H](C)[C@H](NC(=O)[C@H](CCCNC(=N)N)NC(=O)[C@H](CCCNC(=N)N)NC(=O)[C@@H](Cc1ccccc1)NC(=O)[C@H](CC(C)C)NC(=O)[C@H](CCCNC(=N)N)NC(=O)[C@@H](N)CCCNC(=N)N)C(=O)N[C@@H](CC(C)C)C(=O)N[C@@H](CCCNC(=N)N)C(=O)N[C@@H](Cc1c[nH]c2ccccc12)C(=O)N[C@@H](CC(C)C)C(N)=O [RW-BP100-4D] (HELM PEPTIDE1{R.R.L.[dF].R.R.I.L.R.W.L.[am]}$$$$V2.0)
MIC of peptides (Fusarium oxysporum LD21; CLSI M38, mean of three repeated experiments): 12 µg/mL | MBC of peptides (Fusarium oxysporum LD21; mean of three repeated experiments): 25 µg/mL | Degradation, papain (papain): >90% | MBC of peptides (Escherichia coli 47EC): 12 µg/mL | MIC of peptides (Escherichia coli 47EC): 3 µg/mL and 6 µg/mL | MBC of peptides [1]: 12 µg/mL | MIC of peptides [1]: 6 µg/mL | MBC of peptides [2]: 50 µg/mL | MIC of peptides [2]: 12 µg/mL | MBC of peptides [3]: 50 µg/mL | MIC of peptides [3]: 12 µg/mL | MICs after treatment with proteinase K, fold of the original level [4]: 4–8 fold | Cell survival rate, RAW264.7 (RAW264.7 cells): 78.02 ± 7.66% | MBC of peptides ([5]; Escherichia coli ACTT25922, mean of three repeated experiments): 12 µg/mL | MIC Escherichia coli ATCC25922 [5, 8]: 6 µg/mL (≈ 3.79 µM) | MIC of peptides ([5]; Table 2, Escherichia coli ACTT25922, mean of three repeated experiments): 6 µg/mL | Cell survival rate, MAC-T (MAC-T cells): 92.68 ± 3.65% | Degradation, 40-80 ℃ ([6]; pH 7, 40-80 ℃, decrease of HPLC peak area (C8, UV 220 nm) of native peptide): 0% | Degradation, 90 ℃ ([6]; pH 7, 90 ℃, decrease of HPLC peak area (C8, UV 220 nm)): 56% | Degradation, 100 ℃ ([6]; pH 7, 100 ℃, decrease of HPLC peak area (C8, UV 220 nm)): 82% | MIC of RW-BP100-4D against E. coli ATCC25922 after 40-80 ℃ (E. coli ATCC25922; 100 μg/mL peptide in PBS, pH 7, 40-80 ℃, then broth microdilution): 6 µg/mL | MIC of RW-BP100-4D against E. coli ATCC25922 after 90 ℃ (E. coli ATCC25922; 100 μg/mL peptide in PBS, pH 7, 90 ℃): 12 µg/mL | MIC of RW-BP100-4D against E. coli ATCC25922 after 100 ℃ (E. coli ATCC25922; 100 μg/mL peptide in PBS, pH 7, 100 ℃): 25 µg/mL | MIC of RW-BP100-4D against E. coli ATCC25922 after papain (E. coli ATCC25922; 100 μg/mL peptide with papain 1 mg/mL, 37°C, protease inactivated 80°C 30 min): >50 µg/mL | MIC of RW-BP100-4D against E. coli ATCC25922 after calf serum (E. coli ATCC25922; 100 μg/mL peptide with sterile calf serum, 37°C, serum inactivated 80°C 30 min): >50 µg/mL | MIC of RW-BP100-4D against E. coli ATCC25922 after trypsin (E. coli ATCC25922; 100 μg/mL peptide with trypsin 1 mg/mL, 37°C, protease inactivated 80°C 30 min): >50 µg/mL | MIC of RW-BP100-4D against E. coli ATCC25922 after pH 2-7 (E. coli ATCC25922; 100 μg/mL peptide, pH 2-7, 37°C, then adjusted to pH 7.0): 6 µg/mL | MIC of RW-BP100-4D against E. coli ATCC25922 after pH 8-9 (E. coli ATCC25922; 100 μg/mL peptide, pH 8-9, 37°C, then adjusted to pH 7.0): 12 µg/mL | MICs against the selected Gram-negative bacterial isolates (various microorganisms; E. coli, Salmonella enterica, K. pneumoniae, C. jejuni, A. baumannii, Pseudomonas spp., S. putrefaction, range over strains): 3 to 25 µg/mL | MIC against S. aureus ATCC29213 and E. coli ATCC25922 (both strains together) (various microorganisms; summary of Table 1): 3 to 12 µg/mL | MIC Staphylococcus aureus ATCC29213 [7, 8]: 3 µg/mL (≈ 1.89 µM) | MIC of peptides ([7]; Table 2, Staphylococcus aureus ATCC29213, mean of three repeated experiments): 6 µg/mL and 3 µg/mL
